US20250101032A1, “EXATECAN DERIVATIVES AND ANTIBODY-DRUG CONJUGATES THEREOF” (priority 2021, published 2025)
In brackets after ≈: the same amount, converted by molar mass. Where two headings read alike, the source gives them in different places.

Experiments:
MCF7 = assay: In vitro cytotoxicity assay (CellTiter-Glo), MCF7; format: cell-based, Human; settings: read-out: Cytotoxicity IC50
Protocol: (§1) Human tumor cell lines, SK-BR-3, NCI-H292, HT-29, MCF-7, NCI-N87, and FaDu were obtained from ATCC. NCI-H292, HT-29, MCF-7, and NCI-N87 cells were cultured in RPMI-1640 media (Gibco, Life Technologies) supplemented with 10% v/v heat inactivated FBS (Corning), FaDu cells were maintained in DMEM media (Gibco, Life Technologies) supplemented with 10% v/v heat inactivated FBS (Corning). SK-BR-3 cells were maintained in McCoys 5A medium (Gibco, Life Technologies) supplemented with 10% […] heat inactivated FBS (Corning) at 37° C. in a humidified incubator containing 5% CO2.
(§2) Lyophilized compounds were dissolved in 100% dry DMSO, aliquots frozen and stored at −80° C. Concentration and purity of compound stock solutions in DMSO were determined by RP-HPLC Agilent 1100 platform with 1200 DAD and SofTA ELSD detectors, and the Agilent 6150 MS system (UV/VIS, ELSD purity and MS compound identity confirmation). Shimadzu 3.0 mm×30 mm XR ODS 2.2 μm column was run at 50° C., 1.5 mL/min. Solvent A: 0.1% Formic acid in water, Solvent B: 0.08% Formic acid in methanol-Gradient: 5%-100% B in 3.0 min, 100% solvent B for 0.3 min. Concentration of compounds in 100% DMSO determined by ELS ranged from 1-6 mM.
(§3) Cells were plated in 96-well white flat-bottomed plates (Corning) at 2.0×10^3 cells per well in 100 μL culture medium. After incubation for 24 hours, test compounds were added at a range of concentrations as ten point serial dilution as duplicates or triplicates. Following further incubation for 6 days 37° C., 5% CO2, cell viability was assessed with the use of a CellTiter-Glo Luminescent Cell Viability Assay (Promega). Luminescence was measured using the GloMax instrument (Promega). […] For a subset of payloads, each treatment was independently repeated two to eight times, and IC50 values were averaged. […] Standard deviation (stdev) is shown as (N/A) for treatment performed once.

SKBR3 = assay: In vitro cytotoxicity assay (CellTiter-Glo), SKBR3; format: cell-based, Human; settings: read-out: Cytotoxicity IC50
Protocol: as §1, §2, §3

FaDu = assay: In vitro cytotoxicity assay (CellTiter-Glo), FaDu; format: cell-based, Human; settings: read-out: Cytotoxicity IC50
Protocol: as §1, §2, §3

NCI-N87 = assay: In vitro cytotoxicity assay (CellTiter-Glo), NCI-N87; format: cell-based, Human; settings: read-out: Cytotoxicity IC50
Protocol: as §1, §2, §3

SKOV3 = assay: In vitro cytotoxicity assay (CellTiter-Glo), SKOV3; format: cell-based; settings: read-out: Cytotoxicity IC50
Protocol: (§4) Lyophilized compounds were dissolved in 100% dry DMSO, aliquots frozen and stored at −80° C. […] Shimadzu 3.0 mm×30 mm XR ODS 2.2 μm column was run at 50° C., 1.5 mL/min. Solvent A: 0.1% Formic acid in water, Solvent B: 0.08% Formic acid in methanol-Gradient: 5%-100% B in 3.0 min, 100% solvent B for 0.3 min.
as §3

NCI-H292 = assay: In vitro cytotoxicity assay (CellTiter-Glo), NCI-H292; format: cell-based, Human; settings: read-out: Cytotoxicity IC50
Protocol: as §1, §2, §3

BXPC3 = assay: In vitro cytotoxicity assay (CellTiter-Glo), BXPC3; format: cell-based; settings: read-out: Cytotoxicity IC50
Protocol: as §4, §3

physchem = settings: 25 °C, pH 7.4, aqueous buffer, kinetic from dmso stock
Protocol: In-vitro kinetic solubilities of the compounds in PBS pH 7.4 buffer at 25° C. were determined by diluting compounds from 100% dimethyl sulfoxide (DMSO) into PBS buffer and measuring absorbance at 490, 590 and 650 nm. Stock concentrations in 100% DMSO were provided at 1-6 mM in 100% DMSO. Kinetic solubilities were determined by diluting test compounds from 100% DMSO into PBS pH 7.4 buffer, as duplicate, 10 point 2-fold serial dilution starting at 100× dilution of stock DMS solution into PBS buffer in a clear, flat bottom polystyrene assay plates. Total assay volume was 200 microliters. Solutions were mixed by plate shaking, incubated for 30 m at 25° C., and absorbance was read at 490, 590 and 650 nm. […] in PBS buffer was used as a blank. For each test compound, average optical density (GD) at each concentration was determined by averaging the blank corrected sum of absorption at 490 nm, 590 nm and 650 nm, over duplicate measurements. Turbidity threshold optical density value was set as a sum of mean plus two standard deviations of the mean of absorbances at 490, 590 and 650 nm for 1% (v/v) DMSO in PBS pH 7.4 buffer. Highest soluble concentration (micromolar) corresponded to the highest concentration at which average optical density was below optical density value set for turbidity threshold (Table 4). Amiodarone and propranolol were used as low and high solubility controls respectively.

HT29 = assay: In vitro cytotoxicity assay (CellTiter-Glo), HT29; format: cell-based, Human; settings: read-out: Cytotoxicity IC50
Protocol: as §1, §2, §3

[1] = MCF7 cells, 6 days incubation, mean of IC50 values
[2] = SKBR3 cells, 6 days incubation, mean of IC50 values
[3] = FaDu cells, 6 days incubation, mean of IC50 values
[4] = NCI-N87 cells, 6 days incubation, mean of IC50 values
[5] = SKOV3 cells, 6 days incubation, mean of IC50 values
[6] = NCI-H292 cells, 6 days incubation, mean of IC50 values
[7] = BXPC3 cells, 6 days incubation, mean of IC50 values
[8] = HT29 cells, 6 days incubation, mean of IC50 values

| Molecule | IC50 (MCF7; Homo sapiens, MCF7, 144 h) [µM] | IC50 (SKBR3; Homo sapiens, SK-BR-3, 144 h) [µM] | IC50 (FaDu; Homo sapiens, FaDu, 144 h) [µM] | IC50 (NCI-N87; Homo sapiens, NCI-N87, 144 h) [µM] | IC50 (SKOV3; Homo sapiens, SK-OV-3, 144 h) [µM] | IC50 (NCI-H292; Homo sapiens, NCI-H292, 144 h) [µM] | IC50 (BXPC3; Homo sapiens, BXPC-3, 144 h) [µM] | solubility at 30 min (physchem) [µM] | IC50 (HT29; Homo sapiens, HT-29, 144 h) [µM] | IC50 (MCF7; [1]) [µM] | IC50 (SKBR3; [2]) [µM] | IC50 (FaDu; [3]) [µM] | IC50 (NCI-N87; [4]) [µM] | IC50 (SKOV3; [5]) [µM] | IC50 (NCI-H292; [6]) [µM] | IC50 (BXPC3; [7]) [µM] | IC50 (HT29; [8]) [µM] |
| --- | --- | --- | --- | --- | --- | --- | --- | --- | --- | --- | --- | --- | --- | --- | --- | --- | --- |
| CC[C@@]1(O)C(=O)OCc2c1cc1n(c2=O)Cc2c-1nc1cc(F)c(C)c3c1c2[C@@H](NC(=O)[C@@H]1C[C@H]1CO)CC3 (single isomer, unassigned) [Compound 111-A] | 0.0167 | 0.006 | 0.0019 | 0.0131 | 0.0245 | 0.018 | 0.0056 | 23 (≈ 12.3 µg/mL) | 0.0344 | – | – | – | – | – | – | – | – |
| CC[C@@]1(O)C(=O)OCc2c1cc1n(c2=O)Cc2c-1nc1cc(F)c(C)c3c1c2[C@@H](Nc1c(NCCO)c(=O)c1=O)CC3 [Compound 2] | 0.0414 | 0.0754 | 0.0234 | 0.111 | 0.124 | 0.096 | 0.0298 | 15 (≈ 8.62 µg/mL) | 0.18 | – | – | – | – | – | – | – | – |
| CC[C@@]1(O)C(=O)OCc2c1cc1n(c2=O)Cc2c-1nc1cc(F)c(C)c3c1c2[C@@H](NC(=O)CC(=O)NCCO)CC3 [Compound 12] | 0.0439 | 0.0305 | 0.0164 | 0.092 | 0.151 | 0.0686 | 0.0456 | 17 (≈ 9.6 µg/mL) | 0.318 | – | – | – | – | – | – | – | – |
| CC[C@@]1(O)C(=O)OCc2c1cc1n(c2=O)Cc2c-1nc1cc(F)c(C)c3c1c2[C@@H](NC(=O)CCC(=O)NCCO)CC3 [Compound 16] | 0.14 | 0.166 | 0.072 | 0.736 | 0.341 | 0.29 | 0.149 | 22 (≈ 12.7 µg/mL) | 1.14 | – | – | – | – | – | – | – | – |
| CC[C@@]1(O)C(=O)OCc2c1cc1n(c2=O)Cc2c-1nc1cc(F)c(C)c3c1c2[C@@H](Nc1c(NC(CO)(CO)CO)c(=O)c1=O)CC3 [Compound 18] | 0.0407 | 0.0657 | 0.0429 | 0.158 | 0.167 | 0.0821 | 0.0449 | 13 (≈ 8.25 µg/mL) | 0.179 | – | – | – | – | – | – | – | – |
| CC[C@@]1(O)C(=O)OCc2c1cc1n(c2=O)Cc2c-1nc1cc(F)c(C)c3c1c2[C@@H](NC(=O)OCCO)CC3 [Compound 22] | 0.0023 | 0.0012 | 0.0007 | 0.0026 | 0.0019 | 0.0027 | 0.0007 | 23 (≈ 12 µg/mL) | 0.0057 | – | – | – | – | – | – | – | – |
| CC[C@@]1(O)C(=O)OCc2c1cc1n(c2=O)Cc2c-1nc1cc(F)c(C)c3c1c2[C@@H](NC(=O)NCCO)CC3 [Compound 42] | 0.0118 | 0.0052 | 0.0029 | 0.012 | 0.0195 | 0.0024 | 0.0056 | 8 (≈ 4.18 µg/mL) | 0.0102 | – | – | – | – | – | – | – | – |
| CC[C@@]1(O)C(=O)OCc2c1cc1n(c2=O)Cc2c-1nc1cc(F)c(C)c3c1c2[C@@H](NC(=O)NC(CO)(CO)CO)CC3 [Compound 48] | 0.0118 | 0.0126 | 0.0028 | 0.043 | 0.0778 | 0.0271 | 0.0203 | 28 (≈ 16.3 µg/mL) | 0.0636 | – | – | – | – | – | – | – | – |
| CC[C@@]1(O)C(=O)OCc2c1cc1n(c2=O)Cc2c-1nc1cc(F)c(C)c3c1c2[C@@H](NC(=O)C12CC(O)(C1)C2)CC3 [Compound 79] | 0.0098 | 0.0059 | 0.0023 | 0.0155 | 0.0253 | 0.014 | 0.0055 | – | 0.0317 | – | – | – | – | – | – | – | – |
| CC[C@@]1(O)C(=O)OCc2c1cc1n(c2=O)Cc2c-1nc1cc(F)c(C)c3c1c2[C@@H](NC(=O)CCC(=O)NC(CO)(CO)CO)CC3 [Compound 122] | 0.205 | 0.657 | 0.121 | 2.7 | 0.819 | 1.02 | 0.227 | – | 3.4 | – | – | – | – | – | – | – | – |
| CC[C@@]1(O)C(=O)OCc2c1cc1n(c2=S)Cc2c-1nc1cc(F)c(C)c3c1c2[C@@H](NC(=S)CO)CC3 [Compound 148] | 0.0001 | 0.0003 | – | 0.0002 | 0.0002 | 0.0011 | 0.0001 | 3 (≈ 1.58 µg/mL) | 0.0009 | – | – | – | – | – | – | – | – |
| CC[C@@]1(O)C(=O)OCc2c1cc1n(c2=O)Cc2c-1nc1cc(F)c(C)c3c1c2[C@@H](NC(=O)CO)CC3 [DXD] | – | – | – | – | – | – | – | – | – | 0.0027 | 0.0013 | 0.0009 | 0.0047 | 0.0086 | 0.0038 | 0.0023 | 0.0069 |
| SN-38 | – | – | – | – | – | – | – | – | – | 0.0043 | 0.0018 | 0.0022 | 0.0042 | 0.0032 | 0.0025 | 0.0005 | 0.0051 |
